Results taken from patent publication US20060240986A1, “Herbicidal method” (Sumitomo Chemical Company, Limited, priority 2005, published 2006).

Tests used:
[1] = tested on: hemp sesbania (Seshania exaltata); test: Test Example 1, peanut field: herbicidal activity; assay type: in vivo; conditions: sprayed over plants grown 12 days, examined 7 days after application
Procedure: (§1) Plastic pots each having a diameter of 18 cm and depth of 14 cm were filled with upland soil, and then seeded with yellow nutsedge (Cyperus esculentus), hemp sesbania (Seshania exaltata) and sicklepod (Cassia obtusifolia). In a greenhouse, they were grown for 12 days. Flumioxazin water dispersible granules (commercial name: Valor SX, produced by Valent U.S.A.), Imazosulfuron emulsifiable concentrate (produced by mixing well 5 parts of Imazosulfuron, 65 parts of cyclohexanone, 13 parts of Sorpol 2680 (Toho Chemical's product) and 17 parts of dimethylformamide) and a mixture of the Flumioxazin water dispersible granules and the Imazosulfuron emulsifiable concentrate were independently diluted in their designated amounts with water. Each dilution was uniformly sprayed over the test plants with a small sprayer. […] Further, the pots were seeded with peanut (Arachis hypogea) 7 days after the application, and the phytotoxicity against the crop was examined 10 days after the seeding.

[2] = tested on: sicklepod (Cassia obtusifolia); test: Test Example 1, peanut field: herbicidal activity; assay type: in vivo; conditions: sprayed over plants grown 12 days, examined 7 days after application
Procedure: as §1

[3] = tested on: yellow nutsedge (Cyperus esculentus); test: Test Example 1, peanut field: herbicidal activity; assay type: in vivo; conditions: sprayed over plants grown 12 days, examined 7 days after application
Procedure: as §1

peanut (Arachis hypogea) = test: Test Example 1, peanut field: phytotoxicity against crop; assay type: in vivo; conditions: peanut seeded 7 days after application, examined 10 days after seeding
Procedure: as §1

[4] = tested on: barnyardgrass (Echinochloa crus-gall); test: Test Example 2, vegetable field: herbicidal activity; assay type: in vivo, Echinochloa crus-galli; conditions: granules to soil surface the day after seeding, grown 29 days
Source text: (§2) Plastic pots each having a diameter of 18 cm and depth of 14 cm were filled with upland soil, and then seeded with barnyardgrass (Echinochloa crus-gall) and onion (Allium cepa).

onion (Allium cepa) = test: Test Example 2, vegetable field: phytotoxicity; assay type: in vivo; conditions: 20 g/ha active ingredient; granules to soil surface the day after seeding; grown 29 days
Source text: as §2

[5] = tested on: giant foxtail (Setaria faberi); test: Test Example 5, vegetable field: herbicidal activity; assay type: in vivo; conditions: granules to soil surface the day after seeding, 17 days in greenhouse
Source text: (§3) Plastic pots each having a diameter of 18 cm and depth of 14 cm were filled with upland soil, seedlings of strawberry (Fragaria ananassa) was transplanted and then seeded with giant foxtail (Setaria faberi).

[6] = tested on: strawberry (Fragaria ananassa); test: Test Example 5, vegetable field: phytotoxicity; assay type: in vivo; conditions: 40 g/ha active ingredient; transplanted seedlings; granules to soil surface the next day; 17 days in greenhouse
Source text: as §3

kudzu (Pueraria lobata) = test: Test Example 12, non-cultivated land: herbicidal activity; assay type: in vivo; conditions: sprayed to soil surface the day after seeding, 14 days in greenhouse
Source text: Plastic pots each having a diameter of 9 cm and depth of 7 cm were filled with upland soil, and then seeded with kudzu (Pueraria lobata).

Compound | Herbicidal activity Se ([1]; 30 g/ha active ingredient) | Herbicidal activity Se ([1]; 60 g/ha active ingredient) | Herbicidal activity Co ([2]; 30 g/ha active ingredient) | Herbicidal activity Co ([2]; 60 g/ha active ingredient) | Herbicidal activity Ce ([3]; 30 g/ha active ingredient) | Herbicidal activity Ce ([3]; 60 g/ha active ingredient) | Phytotoxicity against crop Peanut (peanut (Arachis hypogea); 30 g/ha active ingredient) | Phytotoxicity against crop Peanut (peanut (Arachis hypogea); 60 g/ha active ingredient) | Herbicidal activity Barnyardgrass ([4]; 20 g/ha active ingredient) | Phtotoxicity Onion (onion (Allium cepa)) | Herbicidal activity giant foxtail ([5]; 40 g/ha active ingredient) | Phtotoxicity strawberry [6] | Herbicidal activity kudzu (kudzu (Pueraria lobata); 100 g/ha active ingredient) | Herbicidal activity Se ([1]; 120 g/ha active ingredient) | Herbicidal activity Co ([2]; 120 g/ha active ingredient) | Herbicidal activity Ce ([3]; 120 g/ha active ingredient) | Herbicidal activity Barnyardgrass ([4]; 50 g/ha active ingredient) | Herbicidal activity giant foxtail ([5]; 50 g/ha active ingredient) | Herbicidal activity giant foxtail ([5]; 250 g/ha active ingredient) | Herbicidal activity kudzu (kudzu (Pueraria lobata); 500 g/ha active ingredient)
C#CCN1C(=O)COc2cc(F)c(N3C(=O)C4=C(CCCC4)C3=O)cc21 [Flumioxazin, N-(7-fluoro-3,4-dihydro-3-oxo-4-prop-2-ynyl-2H-1,4-benzoxadin-6-yl)cyclohex-1-ene-1,2-dicarboxamide] | 1 | 1 | 0 | 1 | 0 | 0 | No damage | No damage | 1 | No damage | 2 | No damage | 1 | – | – | – | – | – | – | –
COc1cc(OC)nc(NC(=O)NS(=O)(=O)c2c(Cl)nc3ccccn23)n1 [Imazosulfuron, 1-(2-chloroimidazo[1,2-a]pyridin-3-ylsulfonyl)-3-(4,6-dimethoxypyrimidin-2-yl)urea] | – | 2 | – | 1 | – | 2 | – | – | – | – | – | – | 1 | 3 | 1 | 2 | 0 | 0 | 1 | 2
